Laboratory results from patent US8349619B2, “Method for detecting and analyzing protein interactions in-vivo” (Sygnis Bioscience GmbH & Co. KG, priority 2002, dated 2013).

Assays:
PC12 20.4 cells = assay: Cell survival of PC12 20.4 cells after TSA addition (phase contrast images); format: cell-based, rat; conditions: 3 μM TSA for 12 h
Description: As described in example 4, the PC12 cell line 20.4 expresses all components of the Cre-based reporter system in a completely functional manner. In order to test whether the cell line 20.4 can be utilized for application in the two-hybrid system (see FIG. 2), the known interaction partners described in example 3 were analyzed. Two days after cotransfection of the interaction partners G-ME2bHLH and V-ND, no GFP-positive cells were detectable (see FIG. 7, bottom left). After single transfections of G-ME2bHLH and V-ND, GFP-positive cells were likewise not detectable (see FIG. 7, central figures, left). […] Therefore, the same two-hybrid analysis was carried out in the following experiments, after transient addition of trichostatin A (3 μM, for 12 h, Sigma) (FIG. 8). […] After single transfections of G-ME2bHLH and V-ND, no GFP-positive cells were detectable (see FIG. 8, central figures, left). […] The TSA concentration with the best ratio of cell survival and nearly background-free detection of the interaction of G-ME2bHLH and V-ND, was […] for 12 h. […] Only after cotransfection of the interaction partners GBR2cc and V-GBR1cc, a multiplicity of GFP-positive cells were detected, after single transfection and cotransfection of the cc deletion mutants, GBR2ccDel and V-GBR1ccDel, no GFP-positive cells were microscopically detectable (see FIG. 9, bottom bar).

[1] = test system: interaction of G-ME2bHLH and V-ND in PC12 20.4 cells; assay: Cre recombinase-based two-hybrid system in PC12 cell line 20.4 with transient addition of TSA, GFP fluorescence; set-up: species or system rat; conditions: 3 μM TSA for 12 h; two days after transfection of G-ME2bHLH and V-ND; without TSA no GFP-positive cells
Source text: FIG. 8 depicts GFP-fluorescence and phase contrast images of the stable PC12 cell line #20.4 two days after transfection with GV, G-ME2bHLH, V-ND and G-ME2bHLH with V-ND, with addition of TSA. […] After cotransfection of the two-hybrid interaction partners V-ND and G-ME2bHLH, GFP fluorescence is likewise detectable under the TSA culturing conditions (bottom left). Under control conditions, transfection of V-ND or G-ME2bHLH, no GFP fluorescence is detectable (center left).
As described in example 4, the PC12 cell line 20.4 expresses all components of the Cre-based reporter system in a completely functional manner. In order to test whether the cell line 20.4 can be utilized for application in the two-hybrid system (see FIG. 2), the known interaction partners described in example 3 were analyzed. Two days after cotransfection of the interaction partners G-ME2bHLH and V-ND, no GFP-positive cells were detectable (see FIG. 7, bottom left). After single transfections of G-ME2bHLH and V-ND, GFP-positive cells were likewise not detectable (see FIG. 7, central figures, left). […] Only after cotransfection of the interaction partners GBR2cc and V-GBR1cc, a multiplicity of GFP-positive cells were detected, after single transfection and cotransfection of the cc deletion mutants, GBR2ccDel and V-GBR1ccDel, no GFP-positive cells were microscopically detectable (see FIG. 9, bottom bar).

CC(/C=C/C(=O)NO)=C\[C@@H](C)C(=O)c1ccc(N(C)C)cc1 [TSA, trichostatin A]
number of surviving cells (PC12 20.4 cells): lower number of surviving cells
GFP-positive cells detected after transient addition of TSA [1]: a multiplicity of GFP-positive cells were now detected
